Measured values: publication PMC3433650 (Journal of neurochemistry, 2012)

Tested on: rat and human α9α10 nAChRs
Assay: ACh-evoked currents in Xenopus oocytes expressing rat or human α9α10 nAChRs
Assay type: cell-based
Details: 100 µM ACh

## CC(=O)OCC[N+](C)(C)C [ACh, Acetylcholine chloride]
  ACh-evoked current, rat vs human α9α10 (in words): generally evoked larger currents in Xenopus oocytes expressing rat α9α10 nAChRs than in oocytes expressing human α9α10 nAChRs
